From patent US20250230147A1, “LACTAMS AS CBL-B INHIBITORS” (Genentech, Inc., priority 2021, published 2025)

How the values were obtained:
c-Cbl = c-Cbl (Homo sapiens (Human), UniProt P22681); assay: C-Cbl LCK Ub TR-FRET assay (c-cbl Lck HTRF); assay type: biochemical; details: for (fold-selectivity): C-cbl Lck HTRF IC50 relative to Cbl-b Lck HTRF IC50
Summary of the method: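 Detection reagents added, brief spin, 20 min RT. IC50 fit normalized to no-LCK (low) and DMSO (high) controls.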

Cbl-b = Cbl-b (Homo sapiens (Human), UniProt Q13191); assay: Cbl-b LCK Ub TR-FRET assay (Cbl-b Lck HTRF); assay type: biochemical
Summary of the method: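 Biotin-Cbl-b preincubated with compound (10-point 3-fold series) 60 min, then His-LCK with 1 mM ATP (2× mixture) added for 90 min at room temperature. Ubiquitination detected by TR-FRET using HA-ubiquitin/UBE2D2 adduct, anti-HA-D2 and streptavidin-Eu; IC50 normalised to no-LCK and DMSO controls.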

Sequence of Cbl-b (Q13191 40-426): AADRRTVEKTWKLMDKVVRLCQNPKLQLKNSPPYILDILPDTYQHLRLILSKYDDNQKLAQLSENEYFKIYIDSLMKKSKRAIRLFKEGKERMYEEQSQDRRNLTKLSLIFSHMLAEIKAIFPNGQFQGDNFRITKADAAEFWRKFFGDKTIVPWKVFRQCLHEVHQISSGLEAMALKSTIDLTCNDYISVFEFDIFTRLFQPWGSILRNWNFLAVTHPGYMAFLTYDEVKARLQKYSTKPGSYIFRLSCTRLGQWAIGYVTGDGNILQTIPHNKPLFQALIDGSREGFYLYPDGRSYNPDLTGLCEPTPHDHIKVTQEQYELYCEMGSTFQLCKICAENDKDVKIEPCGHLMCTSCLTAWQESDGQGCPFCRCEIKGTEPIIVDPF
Sequence of c-Cbl (P22681 47-435): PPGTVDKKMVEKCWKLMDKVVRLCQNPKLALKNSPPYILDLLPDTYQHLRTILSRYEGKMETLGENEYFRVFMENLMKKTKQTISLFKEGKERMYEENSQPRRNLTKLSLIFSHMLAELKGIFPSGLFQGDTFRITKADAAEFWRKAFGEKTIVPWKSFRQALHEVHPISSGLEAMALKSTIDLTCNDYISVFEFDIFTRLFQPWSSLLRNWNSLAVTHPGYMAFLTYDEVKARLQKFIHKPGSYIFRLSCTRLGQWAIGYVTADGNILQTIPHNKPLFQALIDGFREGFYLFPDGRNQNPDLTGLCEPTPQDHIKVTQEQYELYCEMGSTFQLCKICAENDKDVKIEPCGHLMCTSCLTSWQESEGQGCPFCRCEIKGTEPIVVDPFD

IC50 (c-Cbl) | (fold-selectivity) (c-Cbl) | IC50 (Cbl-b) | fold of selectivity (Cbl-b; Cbl-b over c-Cbl, Lck HTRF IC50) | Compound
190 nM | 1.3x | 150 nM | – | Cn1cnnc1[C@H](F)C1(c2cccc(N3Cc4c(cc(CN5CCC[C@@H]5CO)cc4C(F)(F)F)C3=O)c2)COC1 [Compound 147, 2-(3-(3-((R)-fluoro(4-methyl-4H-1,2,4-triazol-3-yl)methyl)oxetan-3-yl)phenyl)-6-(((R)-2-(hydroxymethyl)pyrrolidin-1-yl)methyl)-4-(trifluoromethyl)isoindolin-1-one]
730 nM | 1.1x | 690 nM | – | Cn1cnnc1[C@@H](F)C1(c2cccc(N3Cc4c(cc(CN5CCC[C@@H]5CO)cc4C(F)(F)F)C3=O)c2)COC1 [Compound 148, 2-(3-(3-((S)-fluoro(4-methyl-4H-1,2,4-triazol-3-yl)methyl)oxetan-3-yl)phenyl)-6-(((R)-2-(hydroxymethyl)pyrrolidin-1-yl)methyl)-4-(trifluoromethyl)isoindolin-1-one]
390 nM | 1.0x | 380 nM | – | Cn1cnnc1[C@H](F)C1(c2cccc(N3Cc4c(cc(CN5CCC[C@H]5CO)cc4C(F)(F)F)C3=O)c2)COC1 [Compound 149, 2-(3-(3-((R)-fluoro(4-methyl-4H-1,2,4-triazol-3-yl)methyl)oxetan-3-yl)phenyl)-6-(((S)-2-(hydroxymethyl)pyrrolidin-1-yl)methyl)-4-(trifluoromethyl)isoindolin-1-one]
1500 nM | 1.1x | 1400 nM | – | Cn1cnnc1[C@@H](F)C1(c2cccc(N3Cc4c(cc(CN5CCC[C@H]5CO)cc4C(F)(F)F)C3=O)c2)COC1 [Compound 150, 2-(3-(3-((S)-fluoro(4-methyl-4H-1,2,4-triazol-3-yl)methyl)oxetan-3-yl)phenyl)-6-(((S)-2-(hydroxymethyl)pyrrolidin-1-yl)methyl)-4-(trifluoromethyl)isoindolin-1-one]
85 nM | 1.4x | 61 nM | – | Cn1cnnc1[C@H](F)C1(c2cccc(N3Cc4c(cc(CN5CCC[C@@H](CO)C5)cc4C(F)(F)F)C3=O)c2)COC1 [Compound 151, 2-(3-(3-((R)-fluoro(4-methyl-4H-1,2,4-triazol-3-yl)methyl)oxetan-3-yl)phenyl)-6-(((R)-3-(hydroxymethyl)piperidin-1-yl)methyl)-4-(trifluoromethyl)isoindolin-1-one]
280 nM | 1.3x | 220 nM | – | Cn1cnnc1[C@@H](F)C1(c2cccc(N3Cc4c(cc(CN5CCC[C@@H](CO)C5)cc4C(F)(F)F)C3=O)c2)COC1 [Compound 152, 2-(3-(3-((S)-fluoro(4-methyl-4R-1,2,4-triazol-3-yl)methyl)oxetan-3-yl)phenyl)-6-(((R)-3-(hydroxymethyl)piperidin-1-yl)methyl)-4-(trifluoromethyl)isoindolin-1-one]
5200 nM | 5.6x | 920 nM | 5.6x | COC[C@H]1CCCN1Cc1cc2c(c(C(F)(F)F)c1)CN(c1cccc(C3([C@H](F)c4nncn4C)COC3)c1)C2=O [Compound 156, 2-(3-(3-((S)-fluoro(4-methyl-4H-1,2,4-triazol-3-yl)methyl)oxetan-3-yl)phenyl)-6-(((R)-2-(methoxymethyl)pyrrolidin-1-yl)methyl)-4-(trifluoromethyl)isoindolin-1-one]
1200 nM | 3.4x | 350 nM | – | COC[C@@H]1CCCN1Cc1cc2c(c(C(F)(F)F)c1)CN(c1cccc(C3([C@@H](F)c4nncn4C)COC3)c1)C2=O [Compound 159, 2-(3-(3-((R)-fluoro(4-methyl-4H-1,2,4-triazol-3-yl)methyl)oxetan-3-yl)phenyl)-6-(((S)-2-(methoxymethyl)pyrrolidin-1-yl)methyl)-4-(trifluoromethyl)isoindolin-1-one]
2300 nM | 1.7x | 1400 nM | – | COC[C@@H]1CCCN1Cc1cc2c(c(C(F)(F)F)c1)CN(c1cccc(C3([C@H](F)c4nncn4C)COC3)c1)C2=O [Compound 160, 2-(3-(3-((S)-fluoro(4-methyl-4H-1,2,4-triazol-3-yl)methyl)oxetan-3-yl)phenyl)-6-(((S)-2-(methoxymethyl)pyrrolidin-1-yl)methyl)-4-(trifluoromethyl)isoindolin-1-one]

More lines, now with the values behind:

Compound | IC50 (c-Cbl) | (fold-selectivity) (c-Cbl) | IC50 (Cbl-b) | fold of selectivity (Cbl-b; Cbl-b over c-Cbl, Lck HTRF IC50)
Cn1cnnc1[C@H](F)C1(c2cccc(N3Cc4c(cc(CN5CC6(C5)CC6(F)F)cc4C(F)(F)F)C3=O)c2)COC1 [Compound 153, (R)-6-((1,1-difluoro-5-azaspiro[2.3]hexan-5-yl)methyl)-2-(3-(3-(fluoro(4-methyl-4H-1,2,4-triazol-3-yl)methyl)oxetan-3-yl)phenyl)-4-(trifluoromethyl)isoindolin-1-one] | 60 nM | 2.2x | 27 nM | –
Cn1cnnc1[C@@H](F)C1(c2cccc(N3Cc4c(cc(CN5CC6(C5)CC6(F)F)cc4C(F)(F)F)C3=O)c2)COC1 [Compound 154, (S)-6-((1,1-difluoro-5-azaspiro[2.3]hexan-5-yl)methyl)-2-(3-(3-(fluoro(4-methyl-4H-1,2,4-triazol-3-yl)methyl)oxetan-3-yl)phenyl)-4-(trifluoromethyl)isoindolin-1-one] | 230 nM | 3.2x | 72 nM | –
COC[C@H]1CCCN1Cc1cc2c(c(C(F)(F)F)c1)CN(c1cccc(C3([C@@H](F)c4nncn4C)COC3)c1)C2=O [Compound 155, 2-(3-(3-((R)-fluoro(4-methyl-4H-1,2,4-triazol-3-yl)methyl)oxetan-3-yl)phenyl)-6-(((R)-2-(methoxymethyl)pyrrolidin-1-yl)methyl)-4-(trifluoromethyl)isoindolin-1-one] | 240 nM | 1.8x | 130 nM | –
CN(CCC(C)(C)O)Cc1cc2c(c(C(F)(F)F)c1)CN(c1cccc(C3([C@@H](F)c4nncn4C)COC3)c1)C2=O [Compound 157, (R)-2-(3-(3-(fluoro(4-methyl-4H-1,2,4-triazol-3-yl)methyl)oxetan-3-yl)phenyl)-6-(((3-hydroxy-3-methylbutyl)(methyl)amino)methyl)-4-(trifluoromethyl)isoindolin-1-one] | 110 nM | 1.6x | 72 nM | –
CN(CCC(C)(C)O)Cc1cc2c(c(C(F)(F)F)c1)CN(c1cccc(C3([C@H](F)c4nncn4C)COC3)c1)C2=O [Compound 158, (S)-2-(3-(3-(fluoro(4-methyl-4H-1,2,4-triazol-3-yl)methyl)oxetan-3-yl)phenyl)-6-(((3-hydroxy-3-methylbutyl)(methyl)amino)methyl)-4-(trifluoromethyl)isoindolin-1-one] | 280 nM | 1.0x | 270 nM | –
Cn1cnnc1[C@H](F)C1(c2cccc(N3Cc4c(cc(CN5CC(C)(O)C5)cc4C(F)(F)F)C3=O)c2)COC1 [Compound 161, (R)-2-(3-(3-(fluoro(4-methyl-4H-1,2,4-triazol-3-yl)methyl)oxetan-3-yl)phenyl)-6-((3-hydroxy-3-methylazetidin-1-yl)methyl)-4-(trifluoromethyl)isoindolin-1-one] | 110 nM | 1.7x | 62 nM | –
Cn1cnnc1[C@@H](F)C1(c2cccc(N3Cc4c(cc(CN5CC(C)(O)C5)cc4C(F)(F)F)C3=O)c2)COC1 [Compound 162, (S)-2-(3-(3-(fluoro(4-methyl-4H-1,2,4-triazol-3-yl)methyl)oxetan-3-yl)phenyl)-6-((3-hydroxy-3-methylazetidin-1-yl)methyl)-4-(trifluoromethyl)isoindolin-1-one] | 330 nM | 1.7x | 190 nM | –
Cn1cnnc1[C@H](F)C1(c2cccc(N3Cc4c(cc(CN5CC(S(C)(=O)=O)C5)cc4C(F)(F)F)C3=O)c2)COC1 [Compound 163, (R)-2-(3-(3-(fluoro(4-methyl-4H-1,2,4-triazol-3-yl)methyl)oxetan-3-yl)phenyl)-6-((3-(methylsulfonyl)azetidin-1-yl)methyl)-4-(trifluoromethyl)isoindolin-1-one] | 240 nM | 1.9x | 130 nM | –
Cn1cnnc1[C@@H](F)C1(c2cccc(N3Cc4c(cc(CN5CC(S(C)(=O)=O)C5)cc4C(F)(F)F)C3=O)c2)COC1 [Compound 164, (S)-2-(3-(3-(fluoro(4-methyl-4H-1,2,4-triazol-3-yl)methyl)oxetan-3-yl)phenyl)-6-((3-(methylsulfonyl)azetidin-1-yl)methyl)-4-(trifluoromethyl)isoindolin-1-one] | 640 nM | 1.8x | 350 nM | –
Cn1cnnc1[C@H](F)C1(c2cccc(N3Cc4c(cc(CN5CC6(CCC6)C5)cc4C(F)(F)F)C3=O)c2)COC1 [Compound 165, (R)-6-(2-azaspiro[3.3]heptan-2-ylmethyl)-2-(3-(3-(fluoro(4-methyl-4H-1,2,4-triazol-3-yl)methyl)oxetan-3-yl)phenyl)-4-(trifluoromethyl)isoindolin-1-one] | 73 nM | 2.1x | 35 nM | –
Cn1cnnc1[C@@H](F)C1(c2cccc(N3Cc4c(cc(CN5CC6(CCC6)C5)cc4C(F)(F)F)C3=O)c2)COC1 [Compound 166, (S)-6-(2-azaspiro[3.3]heptan-2-ylmethyl)-2-(3-(3-(fluoro(4-methyl-4H-1,2,4-triazol-3-yl)methyl)oxetan-3-yl)phenyl)-4-(trifluoromethyl)isoindolin-1-one] | 310 nM | 1.8x | 170 nM | –
